Our source for the LC retention time values is the RepoRT retention time repository.

This data set is described as follows: Agilent ZORBAX 300 SB-C18, 150 × 1 mm, 3.5 µm; A: water + 0.01% heptafluorobutyric acid; B: acetonitrile + 0.01% heptafluorobutyric acid; gradient (min/%B) 0/0 100/90. The note with it: stereoisomer not certain.
With `C#CC(C)(C)NC(C)=O`, the LC retention time stood at 6.79 min.
For the compound `O=C(NCc1cccnc1)c1cccc2ccccc12`, the LC retention time is 9.17 min.
For `CNCC1COCCO1` (centres undefined), the LC retention time worked out at 5.78 min.
For `O=C1NC(=O)C(c2ccccc2)(c2ccccc2)N1` the value was 11 min; for `Cc1cc2ncn(Cc3c(C)c(C)cc(C)c3C)c2cc1C`, 13 min.
On to `CN1C2CCC1C(C(=O)O)C(OC(=O)c1ccccc1)C2` (centres undefined), for which the LC retention time was determined as 8.54 min.
In the case of `CN(C)c1nc(N)nc(N(C)C)n1`, the LC retention time amounted to 8.03 min.
With `c1ccc(CN(CC2=NCCN2)c2ccccc2)cc1` the figure was 10.1 min.
With `NC(=O)c1cnc2ccccc2n1` the figure was 8.31 min; with `COc1ccc2c(c1)C(C)N1C(=O)c3cc(OC)c(OC)cc3C1O2` (centres undefined), 13.1 min.
For `Nc1ncc2[nH]cnc2n1` the value was 5.52 min.
For the compound `O=C(Nc1ccc(C(=O)c2ccccc2)cc1)c1ccc(-c2ccccc2)cc1`, the LC retention time was determined as 17.8 min.
As to `CCN(CC)c1ccc(C2Nc3ccccc3C(CC)(CC)O2)cc1` (centres undefined), the LC retention time came to 13.8 min.
Consider `O=c1oc2ccccc2c2nc(-c3ccncc3)ncc12`, for which the LC retention time was found to be 12.2 min.
With `CC(=O)Nc1cc(NC(C)=O)c(C)c(C(=O)O)c1` the figure was 6.32 min; with `O=C(NCCc1ccco1)c1cccc2c1oc1ccccc12`, 15.7 min; with `CCC(O)(CC)c1ccccc1N`, 8.79 min.
With `C=CC[n+]1ccc2ccccc2c1` the figure was 7.67 min.
With `c1ccc(C2CN3CCSC3=N2)cc1` (centres undefined) the figure was 8.73 min; with `CC(=O)Nc1cccc(C(C)=O)c1`, 8.35 min; with `CCOC(=O)c1c(C)n(C2CCCCC2)c2ccc(OC(C)=O)cc12`, 17.8 min.
For the compound `CCOC(=O)c1ccc(NC(=O)N2CCCC2)cc1`, the LC retention time stood at 11.6 min.
With `CCCCCCNC(=O)c1ccc(OC(C)=O)cc1` the figure was 13.8 min; with `CCNC(=O)CC(=O)NCC`, 5.95 min.
For `CC1=NC(=O)NC(c2ccccc2)C1C(=O)OC(C)C(C)(C)C` (centres undefined) the value was 13.9 min; for `CCN(CC)c1ccc(N=Cc2ccc(N(CC)CC)cc2O)cc1`, 11.5 min.
In the case of `CCNc1ccccc1C(=O)O`, the LC retention time is 10.8 min.
For `O=Cc1c(-c2ccccc2)[nH]c2ccccc12`, the LC retention time worked out at 12.7 min.
Consider `Cc1cc(C)c2cccc(C)c2n1`, for which the LC retention time is 8.65 min.
With `c1ccc2c3c([nH]c2c1)CCCCC3`, the LC retention time stood at 16.6 min.
For `CC(C)(C)c1ccc(C(=O)NCc2ccccc2)o1` the value was 14.8 min; for `NCCNCCNCCN`, 7.5 min.
With `CNC1C(OC2C(OC3C(O)C(O)C(N=C(N)N)C(O)C3N=C(N)N)OC(C)C2(O)C=O)OC(CO)C(O)C1O` (centres undefined) the figure was 7.82 min; with `O=C(c1n[nH]c(=O)c2ccccc12)N1CCN(C(c2ccccc2)c2ccccc2)CC1`, 11.4 min; with `CCN(CCCc1ccccc1)CCCc1ccccc1`, 12.5 min.
With `CC(C)(C)c1ccc(-c2nnnn2-c2ccccc2)cc1` the figure was 16.8 min; with `Nc1ccc(N)nc1`, 5.45 min.
Consider `O=C1CCCN1CP(=O)(O)CCc1ccccc1`, for which the LC retention time came out at 7.26 min.
Take `C=CCNc1ccccc1`: the LC retention time came to 9.55 min.
As for `CCN(CC)CCNc1c(N)c(=O)oc2ccccc12`, the LC retention time turned out to be 8.37 min.
With `CC(N)C(=O)Nc1ccc2ccccc2c1` (centres undefined) the figure was 9.02 min.
Regarding `CN1CCc2cccc3c2C1Cc1ccc(O)c(O)c1-3` (centres undefined), the LC retention time came to 8.8 min.
For `COc1ccccc1OCCN1CCNCC1` the value was 8.16 min; for `O=C(N=CNC(=O)c1cccnc1)c1cccnc1`, 7.45 min; for `O=C1CCNC2CCCCC12` (centres undefined), 6.79 min.
With `Cc1ccc2[nH]c3nc4ccccc4nc3c2c1` the figure was 13.2 min.
For `Cc1nn(-c2ccc(NC(=O)c3ccco3)cc2)c(=O)c2ccccc12` the value was 12 min; for `O=C(c1ccccc1O)N1CCCC1`, 9.29 min; for `CCCCCCC[n+]1ccc(-c2cc[n+](CCCCCCC)cc2)cc1`, 10.5 min.
For `CCC1(CC)C(=O)NCC(C)C1=O` (centres undefined), the LC retention time came to 9.1 min.
With `CCC(C)c1ccccc1NC(=S)Nc1cccnc1` (centres undefined) the figure was 11 min; with `CCn1c2ccccc2c2cc(CNC)ccc21`, 10.2 min.
For `COc1ccc2c(c1)C13CCCCC1C(C2)N(C)CC3` (centres undefined) the value was 10.6 min; for `O=C(C(=O)c1cccs1)c1ccccc1`, 14.4 min; for `NC1CCCCC1N` (centres undefined), 7.01 min.
With `CC1(C)CC(NCC(=O)OC2CCCCC2)CC(C)(C)N1` the figure was 8.55 min; with `CCN(CC)c1nc(-c2ccncc2)nc2ccccc12`, 10.2 min.
`C=CCNC1(c2ccccc2)CCCCC1`: the LC retention time was found to be 9.71 min.
In the case of `COc1ccc(NC(=O)c2ccc(N3C(=O)CCC3=O)cc2)cc1`, the LC retention time came to 10.3 min.
On to `COC(=O)CCC1CCCNC1` (centres undefined), for which the LC retention time stood at 7.49 min.
With `CC1CCC(c2cn(C)c3ccccc23)C(=O)C1` (centres undefined) the figure was 15.7 min.
For `CCOC(=O)c1ccc(NC(=O)C2CC(=O)N(C3CCCCC3)C2)cc1` (centres undefined) the value was 13.2 min; for `OCCCCNCc1ccccc1`, 7.61 min; for `C#CC1(NC(C)=O)CCCCC1`, 9.46 min.
With `O=C(C(Cc1ccccc1)n1cccc1)N1CCCC1` (centres undefined) the figure was 13.8 min.
Take `CN1CCN(C)CC1`: the LC retention time is 6.13 min.
As for `C#CC(C)(C)N`, the LC retention time turned out to be 6.38 min.
For `Cc1[nH]c2ccccc2c1CCNC(=O)CN1C(=O)c2ccccc2C1=O` the value was 12.4 min; for `Cc1ccc(C(=O)c2ccc(CC(=O)O)n2C)cc1`, 10.5 min.
Regarding `Cc1ccc(C(=O)c2cccc(N)c2)cc1C`, the LC retention time turned out to be 13 min.
For `CCOC(=O)c1ccc(NC(=O)CC(C)(C)C)cc1` the value was 14.8 min; for `c1ccc(CCn2cccc2)cc1`, 15.5 min.
With `c1ccc(Cn2ccc3ccccc32)cc1` the figure was 16.8 min.
For `CC(=O)NCCOc1ccc(C)cc1` the value was 10.4 min.
`CCN(CC)c1ccc(C=NNC(=O)C(C)Nc2ccc3ccccc3c2)cc1` (centres undefined): the LC retention time was 14.3 min.
For `CCn1c2ccccc2c2cc(C=NNC(=O)c3ccc(C)cc3)ccc21` the value was 15.7 min.
With `CC(=O)N1C(=O)N(C(C)=O)C(O)C1O` (centres undefined), the LC retention time was found to be 6.42 min.
Regarding `Nc1c(S(=O)(=O)O)[nH]c(=O)[nH]c1=O`, the LC retention time was found to be 1.22 min.
On to `CN1CCC(OC(=O)Cc2ccccc2)CC1`, for which the LC retention time was 8.85 min.
